From ChEMBL document CHEMBL3045917, “Insecticidal cyclodepsipeptides from Beauveria felina” (2011) come the findings set out here.

Values after ≈ are worked out from the molar mass of the structure shown. Where a SMILES comes first, the peptide text is derived from it. [ ]: non-standard residue; d: D form. ξ: configuration not given here. ξLac(3-iPr) = CC(C)CC(O)C(=O)O; NMeV = CN[C@H](C(=O)O)C(C)C; βAla = NCCC(=O)O

One assay has as its system Sitophilus. Description: Insecticidal activity against Sitophilus spp. assessed as mortality after 5 days. The assay is classed as functional. The following applies: 120 h, read-out: LD50 (the source's name).
The subject of a further assay is Callosobruchus maculatus. Description: Insecticidal activity against Callosobruchus maculatus assessed as mortality after 5 days. The assay is classed as functional. The following applies: 120 h, read-out: LD50 (the source's name).

For the compound `CC(C)CC1OC(=O)CCNC(=O)[C@H](C(C)C)N(C)C(=O)[C@H](C(C)C)N(C)C(=O)[C@H](Cc2ccccc2)NC(=O)[C@@H]2CCCN2C1=O` (stereo partly drawn) [ISARIDIN E] (cyclo(F[NMeV][NMeV][βAla][ξLac(3-iPr)]P)), the LC50 amounted to 300 µg/mL (≈ 457 µM) in the assay on Sitophilus and 220 µg/mL (≈ 335 µM) with Callosobruchus maculatus. On to `CCCCC(C)C1CC(=O)NCC(=O)N[C@@H](C(C)C)C(=O)N[C@H](CC(C)C)C(=O)N[C@@H](C)C(=O)N[C@H](C(C)C)C(=O)O1` (stereo partly drawn) [ISO-ISARIIN B], for which, in the assay with Sitophilus, the LC50 was found to be 10 µg/mL (≈ 16.8 µM).
